This passage reports IC50 results from paper PMC9185959, “A nutraceutical product, extracted from Cannabis sativa, modulates voltage-gated sodium channel function” (Journal of Cannabis Research, 2022).

Assay in all cases: automated planar patch-clamp, whole-cell peak current
Holding throughout (assay type): cell-based
In general terms: The patch-clamp technique gives a direct electrical read-out from membranes.

The target in one assay is T1, NaV1.7 (Homo sapiens, UniProt Q15858).
T1 construct: gene SCN9A; full-length channel, stably expressed in HEK293T cells; beta subunits not mentioned
The note with it: holding -80 mV, 200 ms at -120 mV then test pulse to 0 mV every 2 s; 5 min exposure, cumulative 0.1-100 μM; 0.1% DMSO; pH 7.4; 27°C; n=7. The source says:
automated planar patch-clamp, whole-cell peak current on NaV1.7

For a further assay, the target named is T2, NaV1.1 (Homo sapiens, UniProt P35498).
T2 construct: gene SCN1A; full-length channel, stably expressed in HEK293T cells; beta subunits not mentioned
The note with it: holding -80 mV, 200 ms at -120 mV then test pulse to 0 mV every 2 s; 5 min exposure, cumulative 0.1-100 μM; 0.1% DMSO; pH 7.4; 27°C; n=9. The source says: automated planar patch-clamp, whole-cell peak current on NaV1.1

In another assay the target is T3, NaV1.2 (Homo sapiens, UniProt Q99250).
T3 construct: gene SCN2A; full-length channel, stably expressed in HEK293T cells; splice form and beta subunits not mentioned
As to conditions: holding -80 mV, 200 ms at -120 mV then test pulse to 0 mV every 2 s; 5 min exposure, cumulative 0.1-100 μM; 0.1% DMSO; pH 7.4; 27°C; n=6. From the text:
automated planar patch-clamp, whole-cell peak current on NaV1.2

T3 sequence (Q99250 whole entry, canonical isoform): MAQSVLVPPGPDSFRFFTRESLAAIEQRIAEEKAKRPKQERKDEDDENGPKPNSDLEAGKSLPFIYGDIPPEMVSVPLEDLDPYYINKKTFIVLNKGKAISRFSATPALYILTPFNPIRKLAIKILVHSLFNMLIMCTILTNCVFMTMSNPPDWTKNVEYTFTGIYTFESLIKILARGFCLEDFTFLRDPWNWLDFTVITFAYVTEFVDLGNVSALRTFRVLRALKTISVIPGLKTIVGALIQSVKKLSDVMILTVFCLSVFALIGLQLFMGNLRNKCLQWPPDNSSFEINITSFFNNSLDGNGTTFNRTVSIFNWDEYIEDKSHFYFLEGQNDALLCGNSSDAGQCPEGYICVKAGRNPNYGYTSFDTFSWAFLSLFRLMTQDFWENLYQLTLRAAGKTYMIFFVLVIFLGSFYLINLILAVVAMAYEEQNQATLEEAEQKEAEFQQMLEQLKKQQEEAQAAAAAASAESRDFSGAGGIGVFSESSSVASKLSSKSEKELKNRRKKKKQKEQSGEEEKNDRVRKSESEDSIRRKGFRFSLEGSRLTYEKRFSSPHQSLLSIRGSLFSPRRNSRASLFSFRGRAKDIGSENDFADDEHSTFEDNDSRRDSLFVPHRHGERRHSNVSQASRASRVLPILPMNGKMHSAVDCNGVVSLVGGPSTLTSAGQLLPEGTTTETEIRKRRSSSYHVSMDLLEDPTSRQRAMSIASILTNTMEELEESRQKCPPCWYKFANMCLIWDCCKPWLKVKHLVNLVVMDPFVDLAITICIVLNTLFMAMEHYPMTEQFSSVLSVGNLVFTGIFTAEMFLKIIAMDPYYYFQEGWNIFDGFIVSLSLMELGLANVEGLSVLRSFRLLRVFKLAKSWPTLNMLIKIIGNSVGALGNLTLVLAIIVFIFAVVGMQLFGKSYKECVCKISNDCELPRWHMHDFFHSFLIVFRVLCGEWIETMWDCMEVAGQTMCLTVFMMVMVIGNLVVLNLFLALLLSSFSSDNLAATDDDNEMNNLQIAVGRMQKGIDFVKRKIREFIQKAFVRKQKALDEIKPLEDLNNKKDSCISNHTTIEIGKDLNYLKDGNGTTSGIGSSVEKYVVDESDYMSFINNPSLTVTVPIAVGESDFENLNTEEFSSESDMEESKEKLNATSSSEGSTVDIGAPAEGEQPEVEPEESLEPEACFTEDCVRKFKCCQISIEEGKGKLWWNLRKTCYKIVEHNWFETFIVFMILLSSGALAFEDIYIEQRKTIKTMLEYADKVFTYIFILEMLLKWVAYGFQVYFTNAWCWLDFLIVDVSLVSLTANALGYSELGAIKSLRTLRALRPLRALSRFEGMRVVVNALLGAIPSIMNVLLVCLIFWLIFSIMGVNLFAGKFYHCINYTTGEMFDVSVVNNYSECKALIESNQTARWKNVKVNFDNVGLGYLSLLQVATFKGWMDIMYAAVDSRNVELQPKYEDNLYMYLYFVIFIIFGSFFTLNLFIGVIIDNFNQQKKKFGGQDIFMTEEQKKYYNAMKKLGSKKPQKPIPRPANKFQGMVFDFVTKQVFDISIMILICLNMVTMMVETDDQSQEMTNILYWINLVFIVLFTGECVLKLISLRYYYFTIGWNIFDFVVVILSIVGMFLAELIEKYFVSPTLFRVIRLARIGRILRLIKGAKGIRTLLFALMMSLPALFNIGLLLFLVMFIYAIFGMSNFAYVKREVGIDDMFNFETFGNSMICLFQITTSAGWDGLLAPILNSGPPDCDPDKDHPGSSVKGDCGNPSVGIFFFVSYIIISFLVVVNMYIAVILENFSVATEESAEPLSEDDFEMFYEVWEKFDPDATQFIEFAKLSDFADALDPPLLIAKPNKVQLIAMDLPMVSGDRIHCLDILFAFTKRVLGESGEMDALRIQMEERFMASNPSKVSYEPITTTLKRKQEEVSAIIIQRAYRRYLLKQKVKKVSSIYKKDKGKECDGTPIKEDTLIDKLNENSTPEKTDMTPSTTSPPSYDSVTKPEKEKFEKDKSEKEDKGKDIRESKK
T1 sequence (Q15858 whole entry): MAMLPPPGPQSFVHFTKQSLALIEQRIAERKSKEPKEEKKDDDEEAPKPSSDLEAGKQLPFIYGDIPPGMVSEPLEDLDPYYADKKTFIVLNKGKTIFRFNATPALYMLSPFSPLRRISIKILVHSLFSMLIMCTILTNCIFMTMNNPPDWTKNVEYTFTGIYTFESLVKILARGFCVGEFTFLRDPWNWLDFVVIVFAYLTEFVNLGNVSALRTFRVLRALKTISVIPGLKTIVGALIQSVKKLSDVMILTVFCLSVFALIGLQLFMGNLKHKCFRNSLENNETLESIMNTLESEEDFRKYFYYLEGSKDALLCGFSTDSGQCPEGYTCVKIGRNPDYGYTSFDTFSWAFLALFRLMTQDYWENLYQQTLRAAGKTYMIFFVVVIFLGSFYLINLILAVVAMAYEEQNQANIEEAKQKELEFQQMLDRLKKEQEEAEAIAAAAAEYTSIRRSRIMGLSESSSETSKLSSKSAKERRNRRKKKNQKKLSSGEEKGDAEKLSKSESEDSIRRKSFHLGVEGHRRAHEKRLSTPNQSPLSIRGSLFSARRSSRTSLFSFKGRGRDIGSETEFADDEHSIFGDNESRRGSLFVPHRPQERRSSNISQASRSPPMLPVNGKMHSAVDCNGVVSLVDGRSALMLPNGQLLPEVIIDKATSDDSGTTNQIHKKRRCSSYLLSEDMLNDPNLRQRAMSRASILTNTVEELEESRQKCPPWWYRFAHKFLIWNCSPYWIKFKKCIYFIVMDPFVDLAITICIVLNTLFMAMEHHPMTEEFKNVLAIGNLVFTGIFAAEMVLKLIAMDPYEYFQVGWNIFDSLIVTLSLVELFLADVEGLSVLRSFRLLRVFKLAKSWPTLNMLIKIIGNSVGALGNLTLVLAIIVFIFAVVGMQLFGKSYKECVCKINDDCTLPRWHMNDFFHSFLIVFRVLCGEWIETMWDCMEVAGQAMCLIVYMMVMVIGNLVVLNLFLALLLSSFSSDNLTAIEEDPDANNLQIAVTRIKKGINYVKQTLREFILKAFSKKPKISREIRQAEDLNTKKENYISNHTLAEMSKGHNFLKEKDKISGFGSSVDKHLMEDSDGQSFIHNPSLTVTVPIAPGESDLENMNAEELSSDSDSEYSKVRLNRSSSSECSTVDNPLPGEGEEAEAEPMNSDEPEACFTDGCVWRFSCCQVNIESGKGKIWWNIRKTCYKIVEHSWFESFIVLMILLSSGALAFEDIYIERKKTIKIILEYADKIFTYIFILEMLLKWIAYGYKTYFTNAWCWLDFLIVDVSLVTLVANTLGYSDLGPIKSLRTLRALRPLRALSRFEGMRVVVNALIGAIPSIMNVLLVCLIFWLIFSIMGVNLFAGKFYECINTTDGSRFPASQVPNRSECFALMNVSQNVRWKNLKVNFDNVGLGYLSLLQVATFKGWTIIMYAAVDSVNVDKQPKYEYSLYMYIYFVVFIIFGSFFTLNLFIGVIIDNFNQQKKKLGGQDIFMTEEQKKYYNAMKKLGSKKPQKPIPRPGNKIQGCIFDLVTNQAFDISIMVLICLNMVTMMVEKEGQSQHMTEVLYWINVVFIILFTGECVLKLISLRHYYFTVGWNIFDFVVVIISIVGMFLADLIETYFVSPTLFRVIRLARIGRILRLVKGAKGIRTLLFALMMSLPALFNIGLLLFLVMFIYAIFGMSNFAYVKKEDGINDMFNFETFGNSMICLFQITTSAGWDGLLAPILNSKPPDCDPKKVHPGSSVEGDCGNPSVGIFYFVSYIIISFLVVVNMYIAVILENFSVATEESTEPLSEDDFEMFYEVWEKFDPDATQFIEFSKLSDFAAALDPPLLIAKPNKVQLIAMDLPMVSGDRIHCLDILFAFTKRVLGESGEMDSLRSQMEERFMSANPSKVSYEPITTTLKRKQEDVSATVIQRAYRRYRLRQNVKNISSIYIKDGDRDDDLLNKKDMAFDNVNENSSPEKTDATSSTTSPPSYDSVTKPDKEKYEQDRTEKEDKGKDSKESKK

On to `C=C(C)[C@@H]1CCC(C)=C[C@H]1c1c(O)cc(CCCCC)cc1O` [CBD], for which the IC50 (commonly the concentration that gives 50% inhibition) against NaV1.7 is 11.9 ± 2.2 µM; at NaV1.1, 18.5 ± 2.2 µM; against NaV1.2 it was 18.4 ± 2.6 µM.
